The source of these data is patent publication US10323022B2, “Pyrrolidinyl urea, pyrrolidinyl thiourea and pyrrolidinyl guanidine compounds as TrkA kinase inhibitors” (Array BioPharma Inc., priority 2011, dated 2019).

The target in the test is TrkA (Homo sapiens (Human), UniProt P04629). Briefly: TrkA Omnia Assay. The test is classed as biochemical. Conditions: averaged IC50; 20 nM enzyme, 500 μM ATP, 10 μM peptide substrate. The protocol: Trk enzymatic selectivity was assessed using Omnia™ Kinase Assay reagents from Invitrogen Corp. Enzyme (TrkA from Invitrogen Corp.) and test compound (various concentrations) were incubated for 10 minutes at ambient temperature in a 384-well white polypropylene plate (Nunc catalog#267462). Omnia Tyr Peptide #4, as well as ATP, were then added to the plate. Final concentrations were as follows: 20 nM enzyme, 500 μM of ATP, 10 μM peptide substrate. The assay buffer consisted of 25 mM MOPS pH 7.5, 0.005% (v/v) Triton X-100 and 5 mM MgCl2. The production of phosphorylated peptide was monitored continuously for 70 minutes using a Molecular Devices FlexStation II^384 microplate reader (excitation=360 nm; emission=485 nm). Initial rates were calculated from the progress curves. IC50 values were calculated from these rates using either a 4 or 5-parameter logistic curve fit.
TrkA, sequence (P04629 33-796): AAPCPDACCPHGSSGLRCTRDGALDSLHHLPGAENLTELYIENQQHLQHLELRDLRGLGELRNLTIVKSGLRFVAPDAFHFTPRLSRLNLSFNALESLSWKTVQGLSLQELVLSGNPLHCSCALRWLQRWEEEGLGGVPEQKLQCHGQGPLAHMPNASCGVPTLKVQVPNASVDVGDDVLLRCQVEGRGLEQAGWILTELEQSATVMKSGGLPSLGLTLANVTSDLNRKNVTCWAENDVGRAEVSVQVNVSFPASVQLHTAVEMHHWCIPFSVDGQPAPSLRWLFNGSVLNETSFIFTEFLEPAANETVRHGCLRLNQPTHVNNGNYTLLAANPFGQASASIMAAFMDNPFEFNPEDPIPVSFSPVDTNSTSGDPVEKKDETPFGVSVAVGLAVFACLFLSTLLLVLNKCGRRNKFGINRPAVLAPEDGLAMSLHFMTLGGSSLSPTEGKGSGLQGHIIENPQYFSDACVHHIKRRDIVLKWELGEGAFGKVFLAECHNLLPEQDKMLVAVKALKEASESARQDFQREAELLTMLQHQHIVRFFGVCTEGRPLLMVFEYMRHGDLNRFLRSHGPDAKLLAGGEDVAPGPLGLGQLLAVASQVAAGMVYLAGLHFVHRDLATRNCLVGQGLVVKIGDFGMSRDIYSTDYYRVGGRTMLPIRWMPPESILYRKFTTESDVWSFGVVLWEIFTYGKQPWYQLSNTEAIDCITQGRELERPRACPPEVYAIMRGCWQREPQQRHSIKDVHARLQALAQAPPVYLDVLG
For the compound `COCCOc1nn(-c2ccccc2)c(NC(=O)N[C@@H]2CN(CC(F)(F)F)C[C@H]2c2ccccc2)c1C` (relative stereo) [Example 196, 1-(3-(2-methoxyethoxy)-4-methyl-1-phenyl-1H-pyrazol-5-yl)-3-((trans)-4-phenyl-1-(2,2,2-trifluoroethyl)pyrrolidin-3-yl)urea], the IC50 – broadly, the point on the concentration scale where inhibition reaches its midpoint – is less than 100 nM.

With `O=C(Nc1c2c(nn1-c1ccccc1)CCC2)N[C@@H]1CN(C(CF)CF)C[C@H]1c1ccccc1` (relative stereo) [Example 206, 1-((trans)-1-(1,3-difluoropropan-2-yl)-4-phenylpyrrolidin-3-yl)-3-(2-phenyl-2,4,5,6-tetrahydrocyclopenta[c]pyrazol-3-yl)urea], the half-maximal inhibitory concentration (IC50) lay in the range of 100 to 1000 nM.

The compound `COc1cccc([C@@H]2CN(CC(F)(F)F)C[C@H]2NC(=O)Nc2c3c(nn2-c2ccccc2)CCC3)c1` (relative stereo) [Example 207, 1-((trans)-4-(3-methoxyphenyl)-1-(2,2,2-trifluoroethyl)pyrrolidin-3-yl)-3-(2-phenyl-2,4,5,6-tetrahydrocyclopenta[c]pyrazol-3-yl)urea] returned an IC50 of 100 to 1000 nM.

The compound `O=C(Nc1c2c(nn1-c1ccccc1)CCC2)N[C@@H]1CN(CC(F)(F)F)C[C@H]1c1cccc(Cl)c1` (relative stereo) [Example 208, 1-((trans)-4-(3-chlorophenyl)-1-(2,2,2-trifluoroethyl)pyrrolidin-3-yl)-3-(2-phenyl-2,4,5,6-tetrahydrocyclopenta[c]pyrazol-3-yl)urea] came in with an IC50 of 100 to 1000 nM.

As to `O=C(Nc1c2c(nn1-c1ccccc1)CCC2)N[C@@H]1CN(CC(F)(F)F)C[C@H]1c1ccccn1` (relative stereo) [Example 209, 1-(2-phenyl-2,4,5,6-tetrahydrocyclopenta[c]pyrazol-3-yl)-3-((trans)-4-(pyridin-2-yl)-1-(2,2,2-trifluoroethyl)pyrrolidin-3-yl)urea], the IC50 fell in the range of 100 to 1000 nM.

As to `O=C(Nc1c2c(nn1-c1ccccc1)CCC2)N[C@@H]1CN(CC(F)(F)F)C[C@H]1c1ccc(F)cc1` (relative stereo) [Example 210, 1-((trans)-4-(4-fluorophenyl)-1-(2,2,2-trifluoroethyl)pyrrolidin-3-yl)-3-(2-phenyl-2,4,5,6-tetrahydrocyclopenta[c]pyrazol-3-yl)urea], the half-inhibitory concentration (IC50) was less than 100 nM.

Regarding `O=C(Nc1c2c(nn1-c1ccccc1)CCC2)N[C@@H]1CN(CC(F)(F)F)C[C@H]1c1ccc(Cl)cc1` (relative stereo) [Example 211, 1-((trans)-4-(4-chlorophenyl)-1-(2,2,2-trifluoroethyl)pyrrolidin-3-yl)-3-(2-phenyl-2,4,5,6-tetrahydrocyclopenta[c]pyrazol-3-yl)urea], the half-inhibitory concentration (IC50) was less than 100 nM.

Take `O=C(Nc1c2c(nn1-c1ccccc1)CCC2)N[C@@H]1CN(CC(F)(F)F)C[C@H]1c1ccccc1Cl` (relative stereo) [Example 212, 1-((trans)-4-(2-chlorophenyl)-1-(2,2,2-trifluoroethyl)pyrrolidin-3-yl)-3-(2-phenyl-2,4,5,6-tetrahydrocyclopenta[c]pyrazol-3-yl)urea]: the 50% inhibitory concentration (IC50) fell in the range of 1000 to 10000 nM.

As for `O=C(Nc1c2c(nn1-c1ccccc1)CCC2)N[C@@H]1CN(CC(F)(F)F)C[C@H]1c1ccccc1F` (relative stereo) [Example 214, 1-((trans)-4-(2-fluorophenyl)-1-(2,2,2-trifluoroethyl)pyrrolidin-3-yl)-3-(2-phenyl-2,4,5,6-tetrahydrocyclopenta[c]pyrazol-3-yl)urea], the IC50 is less than 100 nM.

Compound `CNCCN1C[C@@H](NC(=O)Nc2c3c(nn2-c2ccccc2)CCC3)[C@H](c2ccc(F)cc2)C1` (relative stereo) [Example 256, 1-((trans)-4-(4-fluorophenyl)-1-(2-(methylamino)ethyl)pyrrolidin-3-yl)-3-(2-phenyl-2,4,5,6-tetrahydrocyclopenta[c]pyrazol-3-yl)urea] returned a half-inhibitory concentration (IC50) of 100 to 1000 nM.

`O=C(Nc1c2c(nn1-c1ccccc1)CCC2)N[C@@H]1CN(Cc2ncc[nH]2)C[C@H]1c1ccccc1` (relative stereo) [Example 257, 1-((trans)-1-((1H-imidazol-2-yl)methyl)-4-phenylpyrrolidin-3-yl)-3-(2-phenyl-2,4,5,6-tetrahydrocyclopenta[c]pyrazol-3-yl)urea]: the IC50 was 100 to 1000 nM.

With `COCCN1C[C@@H](NC(=O)Nc2c(C)c(-c3cnn(C)c3)nn2-c2ccccc2)[C@H](c2ccc(F)c(Cl)c2)C1` (relative stereo) [Example 293, 1-(trans-4-(3-chloro-4-fluorophenyl)-1-(2-methoxyethyl)pyrrolidin-3-yl)-3-(1′,4-dimethyl-1-phenyl-1H,1′H-[3,4′-bipyrazol]-5-yl)urea], the half-maximal inhibitory concentration (IC50) was less than 100 nM.

Take `COCCN1C[C@@H](NC(=O)Nc2c(C)c(-c3cnn(C)c3)nn2-c2ccccc2)[C@H](c2ccc(Cl)c(F)c2)C1` (relative stereo) [Example 294, 1-(trans-4-(4-chloro-3-fluorophenyl)-1-(2-methoxyethyl)pyrrolidin-3-yl)-3-(1′,4-dimethyl-1-phenyl-1H,1′H-[3,4′-bipyrazol]-5-yl)urea]: the IC50 was less than 100 nM.

`COCCN1C[C@@H](NC(=O)Nc2c(C)c(-c3cnn(C)c3)nn2-c2ccccc2)[C@H](c2cc(F)cc(Cl)c2)C1` (relative stereo) [Example 295, 1-(trans-4-(3-chloro-5-fluorophenyl)-1-(2-methoxyethyl)pyrrolidin-3-yl)-3-(1′,4-dimethyl-1-phenyl-1H,1′H-[3,4′-bipyrazol]-5-yl)urea]: the concentration for half-maximal inhibition (IC50) is less than 100 nM.

For `COCCN1C[C@@H](NC(=O)Nc2c(C)c(-c3cnn(C)c3)nn2-c2ccccc2)[C@H](c2cccc(Cl)c2)C1` (relative stereo) [Example 296, 1-(trans-4-(3-chlorophenyl)-1-(2-methoxyethyl)pyrrolidin-3-yl)-3-(1′,4-dimethyl-1-phenyl-1H,1′H-[3,4′-bipyrazol]-5-yl)urea], the half-inhibitory concentration (IC50) is less than 100 nM.

`CNC(=O)c1nn(-c2ccccc2)c(NC(=O)N[C@@H]2CN(CCOC)C[C@H]2c2ccc(F)c(Cl)c2)c1C` (relative stereo) [Example 301, 5-(3-(trans-4-(3-chloro-4-fluorophenyl)-1-(2-methoxyethyl)pyrrolidin-3-yl)ureido)-N,4-dimethyl-1-phenyl-1H-pyrazole-3-carboxamide] returned an IC50 of less than 100 nM.

`CNC(=O)c1nn(-c2ccccc2)c(NC(=O)N[C@@H]2CN(CCOC)C[C@H]2c2ccc(Cl)c(F)c2)c1C` (relative stereo) [Example 302, 5-(3-(trans-4-(4-chloro-3-fluorophenyl)-1-(2-methoxyethyl)pyrrolidin-3-yl)ureido)-N,4-dimethyl-1-phenyl-1H-pyrazole-3-carboxamide] registered an IC50 of less than 100 nM.

As to `COCCN1C[C@@H](NC(=O)Nc2c(C)c(-c3ccn(C)c(=O)c3)nn2-c2ccccc2)[C@H](c2ccc(Cl)c(F)c2)C1` (relative stereo) [Example 303, 1-(trans-4-(4-chloro-3-fluorophenyl)-1-(2-methoxyethyl)pyrrolidin-3-yl)-3-(4-methyl-3-(1-methyl-2-oxo-1,2-dihydropyridin-4-yl)-1-phenyl-1H-pyrazol-5-yl)urea], the 50% inhibitory concentration (IC50) is less than 100 nM.

The compound `COCCN1C[C@@H](NC(=O)Nc2c(C)c(-c3ccn(C)c(=O)c3)nn2-c2ccccc2)[C@H](c2ccc(F)c(Cl)c2)C1` (relative stereo) [Example 304, 1-(trans-4-(3-chloro-4-fluorophenyl)-1-(2-methoxyethyl)pyrrolidin-3-yl)-3-(4-methyl-3-(1-methyl-2-oxo-1,2-dihydropyridin-4-yl)-1-phenyl-1H-pyrazol-5-yl)urea] came in with an IC50 of less than 100 nM.

The compound `COCCN1C[C@@H](NC(=O)Nc2c(C)c(-c3cnn(C)c3)nn2-c2ccccc2)[C@H](c2cnn(C)c2)C1` (relative stereo) [Example 333, 1-(1′,4-dimethyl-1-phenyl-1H,1'H-[3,4′-bipyrazol]-5-yl)-3-(trans-1-(2-methoxyethyl)-4-(1-methyl-1H-pyrazol-4-yl)pyrrolidin-3-yl)urea] registered an IC50 of 100 to 1000 nM.

With `CCOc1nn(-c2ccccc2)c(NC(=O)N[C@@H]2CN(CCOC)C[C@H]2c2cccc(C(F)(F)F)c2)c1C` (relative stereo) [Example 335, 1-(3-ethoxy-4-methyl-1-phenyl-1H-pyrazol-5-yl)-3-(trans-1-(2-methoxyethyl)-4-(3-(trifluoromethyl)phenyl)pyrrolidin-3-yl)urea], the IC50 is less than 100 nM.

For `COCCN1C[C@@H](NC(=O)Nc2c3c(nn2-c2ccccc2)CCC3)[C@H](c2cncc(F)c2)C1` (relative stereo) [Example 341, 1-(trans-4-(5-fluoropyridin-3-yl)-1-(2-methoxyethyl)pyrrolidin-3-yl)-3-(2-phenyl-2,4,5,6-tetrahydrocyclopenta[c]pyrazol-3-yl)urea], the half-maximal inhibitory concentration (IC50) is 100 to 1000 nM.

Take `COCCN1C[C@@H](NC(=O)Nc2c(C)c(C)nn2-c2ccccc2)[C@H](c2cncc(Cl)c2)C1` (relative stereo) [Example 343, 1-(trans-4-(5-chloropyridin-3-yl)-1-(2-methoxyethyl)pyrrolidin-3-yl)-3-(3,4-dimethyl-1-phenyl-1H-pyrazol-5-yl)urea]: the IC50 was less than 100 nM.

As for `COCCN1C[C@@H](NC(=O)Nc2c(C)c(-c3ccccc3)nn2-c2ccccc2)[C@H](c2cncc(F)c2)C1` (relative stereo) [Example 344, 1-(trans-4-(5-fluoropyridin-3-yl)-1-(2-methoxyethyl)pyrrolidin-3-yl)-3-(4-methyl-1,3-diphenyl-1H-pyrazol-5-yl)urea], the IC50 was less than 100 nM.
